Residues, ends and D or L forms follow the SMILES beside them. *: point of attachment. Cbz = O=C(OCc1ccccc1)*; CH2F = FC* Where only a bound is given, the exact number is not on record here.

One series concerns rat islets. The series can be described thus: Viability of encapsulated rat islets after overnight culture. Format: cell-based. The settings on record: nicotinamide 10 mM, Z-VAD.fmk 40 μM. The procedure:
Transplantation of islets microencapsulated within a membrane-mimetic barrier. Evaluation of cell viability. Initial experiments used CHO cells as a readily available model system to assess cell viability after encapsulation. Cells were suspended into alginate solution at 6×10^6 cells/mL and then coated with a photopolymerized membrane-mimetic lipid film. Cell viability of >95% at 24 and 48 hours was confirmed using a Live/Dead cell assay (Molecular Probes, Inc.). In the next phase of this effort, we determined the viability of encapsulated rat islets (103). Rat islets were isolated from outbred male Wistar rats and suspended at a concentration of 1000 islets in 0.25 mL of 2% alginate (UP LVM, Pronova Biomedical, Norway). Alginate encapsulated islets were coated with a membrane-mimetic film and after overnight culture viability was graded with respect to the proportion of viable cells within a given islet.

The conditions of series [1]: biotin binding sites; cited from earlier work.
For series [2] the following is noted: systemic; cited from earlier work.
For series [3], the system named is islet-induced coagulation. The settings on record: ex vivo model; cited from earlier work.
Another series deals with Factor V. The following applies: cited from earlier work.
Series [4] in a line: CD39 ADPase activity kinetics (inorganic phosphate release). The format is biochemical. The following applies: substrate ADP 50-1500 μM; vesicles: molar ratio CD39:POPC 1:33,613. An excerpt:
(§1) We have expressed and purified human CD39 from Pichia pastoris and confirmed both ecto-ATPase and ecto-ADPase activity. […] Briefly, the plasmid carrying the CD39 human coding sequence was provided by Dr. Simon C. Robson (Harvard Medical School, USA). Polymerase chain reaction (PCR) was utilized to add a Kozak sequence flanked by EcoRI to the […] of CD39 and a FLAG tag flanked by XbaI to the 3′ end of CD39. The construct was harbored in pCR 2.1-TOPO (Invitrogen, San Diego, Calif.) and multiplied in One Shot Top10 (Invitrogen). To express CD39 in yeast, the EcoRI/XbaI digestion product was cloned into pPICZ (Invitrogen) and transformed into Pichia pastoris strain SMD1168 (Invitrogen). The expression construct was confirmed through DNA sequencing analysis. P. pastoris cultures were grown at 30° C. and expression induced for 4 days with 0.5% methanol. Cells were harvested, resuspended in breaking buffer, and cell lysates centrifuged to separate membrane and soluble fractions. […] CD39 was extracted from membrane fractions using 1% Igepal CA-630 and purified on anti-FLAG M2 affinity columns (Sigma, Saint Louis, Mo.). Kinetic parameters were measured for both detergent-solubilized CD39 and for protein reconstituted in POPC lipid vesicles at varying molar ratios of CD39 to lipid (1:85,714, 1:33,613, 1:16,806). […] Inorganic phosphate was measured as described by Ames (116). […]

Series [5] is described as follows: CD39 ATPase activity kinetics (inorganic phosphate release). Format: biochemical. The settings on record: substrate ATP 50-1500 μM; vesicles: molar ratio CD39:POPC 1:33,613.
Excerpt: as §1

On to `COC(=O)C[C@H](NC(=O)[C@H](C)NC(=O)[C@@H](NC(=O)OCc1ccccc1)C(C)C)C(=O)CF` [Z-VAD.fmk] (Cbz-Val-Ala-Asp(OMe)-CH2F), for which the “effect of anti-apoptotic agent on islet viability” value in the series with rat islets is listed as “important adjuncts for maximizing islet viability”.

On to `NC(=O)c1cccnc1` [nicotinamide], for which, in the series on rat islets, the “effect of anti-apoptotic agent on islet viability” value is “important adjuncts for maximizing islet viability”. As for “avidin: biotin binding protein with four biotin binding sites”, the “binding affinity (log)” value in series [1] was above 15.

heparin: the half-life entry in series [2] is “one hour”. In addition, the “concentration that prevented islet-induced coagulation” value in series [3] is 4 U/mL blood. Also, the “enhancement of APC's ability to inactivate Factor V” value with Factor V is recorded as “four-fold”.

B1: Free CD39: detergent-solubilized human CD39 expressed in Pichia pastoris, FLAG tagged (protein, UniProt P49961 1-510, looked up)
Ectonucleoside triphosphate …: MEDTKESNVKTFCSKNILAILGFSSIIAVIALLAVGLTQNKALPENVKYGIVLDAGSSHTSLYIYKWPAEKENDTGVVHQVEECRVKGPGISKFVQKVNEIGIYLTDCMERAREVIPRSQHQETPVYLGATAGMRLLRMESEELADRVLDVVERSLSNYPFDFQGARIITGQEEGAYGWITINYLLGKFSQKTRWFSIVPYETNNQETFGALDLGGASTQVTFVPQNQTIESPDNALQFRLYGKDYNVYTHSFLCYGKDQALWQKLAKDIQVASNEILRDPCFHPGYKKVVNVSDLYKTPCTKRFEMTLPFQQFEIQGIGNYQQCHQSILELFNTSYCPYSQCAFNGIFLPPLQGDFGAFSAFYFVMKFLNLTSEKVSQEKVTEMMKKFCAQPWEEIKTSYAGVKEKYLSEYCFSGTYILSLLLQGYHFTADSWEHIHFIGKIQGSDAGWTLGYMLNLTNMIPAEQPLSTPLSHSTYVFLMVLFSLVLFTVAIIGLLIFHKPSYFWKDMV
modifications: FLAG tag
notes: detergent-solubilized human CD39 expressed in Pichia pastoris, FLAG tagged
B1: the Michaelis-Menten constant (Km) (in general, the concentration of substrate that gives half-maximal velocity) in series [4] was 45.8 µM; in series [5], 58.5 µM.
